Data on 8 compounds can be found in US20070129371A1, “Novel ethylenediamine derivatives” (Daiichi Pharmaceutical Co., Ltd., priority 2002, published 2007).

Where a name gives a salt, the structure may show the parent alone.

One may read the IC50 as the concentration that inhibits the measured activity by half. A low value points to greater potency in that assay.

For the assay, the target named is T1, human FXa (Homo sapiens, UniProt P00742).
T1 construct: purchased Enzyme Research Laboratories, Inc
The assay can be described thus: Determination of human FXa-inhibiting effect (IC50 value). In kind it is biochemical. Particulars: S-2222 chromogenic substrate, absorbance at 405 nm, Tris buffer pH 7.4, room temperature. The protocol: A 5% DMSO solution (10 μl) of each test compound, the concentrations of which had been suitably set stepwise, and Tris buffer (100 mM Tris, 200 mM potassium chloride, 0.2% BSA, pH 7.4) (40 μl) and 0.0625 U/ml human FXa (Enzyme Research Laboratories, Inc., dissolved in and diluted with Tris buffer) (10 μl) were put in each of the wells of a 96-well microplate. A 750 μM aqueous solution (40 μl) of S-2222 (Chromogenix Co.) was added. Absorbance at 405 nm was measured for 10 minutes at room temperature to determine an increase in absorbance (ΔOD/min). As a control, Tris buffer was used in place of the test compound.
The percent inhibition (%) calculated using the following equation at the final concentration of the test compound and the final concentration of the test compound were plotted on the ordinate and abscissa of logarithmic probability paper, respectively, to determine the 50% inhibition concentration (IC50 value) Percent inhibition (%)=[1−(ΔOD/min of test compound)÷(ΔOD/min of control)]×100

T1 sequence (P00742 235-488 limits assumed): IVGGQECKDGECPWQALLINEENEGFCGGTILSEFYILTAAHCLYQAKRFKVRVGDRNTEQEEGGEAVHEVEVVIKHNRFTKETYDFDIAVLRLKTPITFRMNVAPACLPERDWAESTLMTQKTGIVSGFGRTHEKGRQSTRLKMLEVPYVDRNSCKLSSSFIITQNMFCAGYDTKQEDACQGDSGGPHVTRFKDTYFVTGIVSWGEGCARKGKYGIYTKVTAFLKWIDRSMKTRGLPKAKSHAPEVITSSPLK
T1 sequence (P00742 41-179 partner limits assumed): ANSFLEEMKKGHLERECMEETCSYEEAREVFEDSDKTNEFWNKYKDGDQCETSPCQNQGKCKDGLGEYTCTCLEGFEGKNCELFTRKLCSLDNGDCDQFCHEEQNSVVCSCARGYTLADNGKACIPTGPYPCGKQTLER

In turn, `CN1CCc2nc(C(=O)N[C@@H](CNC(=O)C(=O)Nc3ccc(Br)cc3)C(=O)N(C)C)sc2C1` [Example 38, N^1-(4-Bromophenyl)-N^2-((2S)-3-(dimethylamino)-2-{[(5-methyl-4,5,6,7-tetrahydrothiazolo[5,4-c]pyridin-2-yl)carbonyl]amino}-3-oxopropyl)ethanediamide hydrochloride] showed a half-maximal inhibitory concentration (IC50) of 0.81 nM.

The compound `CN1CCc2nc(C(=O)N[C@@H](CNC(=O)C(=O)Nc3ccc(Cl)cn3)C(=O)N(C)C)sc2C1` [Example 26, N^1-(5-Chloropyridin-2-yl)-N^2-((2S)-3-(dimethylamino)-2-{[(5-methyl-4,5,6,7-tetrahydrothiazolo[5,4-c]pyridin-2-yl)carbonyl]amino}-3-oxopropyl)ethanediamide hydrochloride] showed an IC50 of 2.4 nM. This IC50 lies about 3-fold higher than the previous one.

Compound `CN1CCc2nc(C(=O)N[C@@H](CNC(=O)C(=O)Nc3ccc(Cl)cc3)C(=O)N(C)C)sc2C1` [Example 39, N^1-(4-Chlorophenyl)-N^2-((2S)-3-(dimethylamino)-2-{[(5-methyl-4,5,6,7-tetrahydrothiazolo[5,4-c]pyridin-2-yl)carbonyl]amino}-3-oxopropyl)ethanediamide hydrochloride] displayed an IC50 of 0.86 nM.

In turn, `CN1CCc2nc(C(=O)N[C@@H](CNC(=O)C(=O)Nc3ccc(Br)cn3)C(=O)N(C)C)sc2C1` [Example 37, N^1-(5-Bromopyridin-2-yl)-N^2-((2S)-3-(dimethylamino)-2-{[(5-methyl-4,5,6,7-tetrahydrothiazolo[5,4-c]pyridine-2-yl)carbonyl]amino}-3-oxopropyl)ethanediamide hydrochloride] came in with an IC50 of 1.5 nM. The result for `CN1CCc2nc(C(=O)NC(CNC(=O)C(=O)Nc3ccc(Cl)cn3)C(=O)N3CCS(=O)(=O)CC3)sc2C1` (centres unmarked) [Example 2, N^1-(5-Chloropyridin-2-yl)-N^2-(3-(1,1-dioxothiomorpholin-4-yl)-2-{[(5-methyl-4,5,6,7-tetrahydrothiazolo[5,4-c]pyridin-2-yl)carbonyl]amino}-3-oxopropyl)ethanediamide hydrochloride] reads 7.1 nM.

For `CN1CCc2nc(C(=O)N[C@@H](CNC(=O)C(=O)Nc3ccc(Cl)cc3)c3cnco3)sc2C1` [Example 62, N^1-(4-Chlorophenyl)-N^2-[(2S)-2-{[(5-methyl-4,5,6,7-tetrahydrothiazolo[5,4-c]pyridin-2-yl)carbonyl]amino}-2-(1,3-oxazol-5-yl)ethyl]ethanediamide hydrochloride], the 50% inhibitory concentration (IC50) is 1.8 nM. The compound `CN1CCc2nc(C(=O)N[C@@H](CNC(=O)C(=O)Nc3ccc(Cl)s3)C(=O)N(C)C)sc2C1` [Example 40, N^1-(5-Chlorothien-2-yl)-N^2-((2S)-3-(dimethylamino)-2-{[(5-methyl-4,5,6,7-tetrahydrothiazolo[5,4-c]pyridin-2-yl)carbonyl]amino}-3-oxopropyl)ethanediamide hydrochloride] had an IC50 of 1.3 nM. For the compound `C[C@@H](NC(=O)C(=O)Nc1ccc(Cl)cn1)[C@H](NC(=O)c1nc2c(s1)CN(C)CC2)C(=O)N(C)C` [Example 66, N^1-(5-Chloropyridin-2-yl)-N^2-((1R,2S)-3-(dimethylamino)-1-methyl-2-{[(5-methyl-4,5,6,7-tetrahydrothiazlo [5,4-c]pyridin-2-yl)carbonyl]amino}-3-oxopropyl)ethanediamide hydrochloride], the half-inhibitory concentration (IC50) was 2 nM.
